# Test results as given in ChEMBL document CHEMBL1128462, “In vivo and in vitro studies on the neurotoxic potential of 6-hydroxydopamine analogs” (J Med Chem, 1995).
# What was measured:
# [1] = biological target: Sodium-dependent dopamine transporter (Rattus norvegicus, UniProt P23977); assay: Evaluated for the Competitive inhibition of uptake of dopamine transporter
# [2] = organism: Mus musculus; assay: Long term depletion of Dopamine(DA) in Whole mouse Brain at a high dose (300 nmol); format: functional
# [3] = organism: Mus musculus; assay: Long term depletion of Dopamine(DA) in Whole mouse Brain at a low dose (60 nmol); format: functional
# [4] = organism: Mus musculus; assay: Long term depletion of Norepinephrine (NE) in Whole mouse Brain at a high dose (300 nmol); format: functional
# [5] = organism: Mus musculus; assay: Long term depletion of Norepinephrine (NE) in Whole mouse Brain at a low dose (60 nmol); format: functional
# [6] = organism: Mus musculus; assay: Long term depletion of Serotonin(5-HT) in Whole mouse Brain at a high dose (300 nmol); format: functional
# [7] = organism: Mus musculus; assay: Long term depletion of Serotonin(5-HT) in Whole mouse Brain at a low dose (60 nmol); format: functional
# [8] = biological target: Norepinephrine transporter (Rattus norvegicus, UniProt Q9WTR4); assay: Evaluated for the Competitive inhibition of uptake of norepinephrine
# Norepinephrine transporter, sequence (Q9WTR4 whole entry): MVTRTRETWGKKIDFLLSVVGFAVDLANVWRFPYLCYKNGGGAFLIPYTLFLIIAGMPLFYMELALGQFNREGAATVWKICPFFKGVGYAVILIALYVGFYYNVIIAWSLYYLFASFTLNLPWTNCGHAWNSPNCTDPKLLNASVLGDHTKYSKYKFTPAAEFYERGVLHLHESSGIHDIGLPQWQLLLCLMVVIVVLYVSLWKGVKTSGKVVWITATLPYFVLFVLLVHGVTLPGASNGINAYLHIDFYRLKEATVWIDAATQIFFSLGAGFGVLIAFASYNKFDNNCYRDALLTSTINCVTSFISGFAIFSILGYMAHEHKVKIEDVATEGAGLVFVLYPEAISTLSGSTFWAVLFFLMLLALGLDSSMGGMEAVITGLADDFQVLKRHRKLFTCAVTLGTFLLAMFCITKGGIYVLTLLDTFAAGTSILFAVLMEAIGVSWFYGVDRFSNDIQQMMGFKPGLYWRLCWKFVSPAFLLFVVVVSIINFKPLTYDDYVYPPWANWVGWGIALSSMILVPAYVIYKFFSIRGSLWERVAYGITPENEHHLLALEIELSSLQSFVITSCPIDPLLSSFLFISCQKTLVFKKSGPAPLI
# [9] = organism: Rattus norvegicus; assay: Evaluated for the stimulation of synaptosomal release of Dopamine (release constant); format: functional
# [10] = organism: Rattus norvegicus; assay: Evaluated for the stimulation of synaptosomal release of norepinephrine (release constant); format: functional
# [11] = organism: Mus musculus; assay: Long term depletion of Dopamine(DA) in Whole mouse Brain region of cerebellum at a high dose (300 nmol) with respect to control value(100+/-9); format: functional
# [12] = organism: Mus musculus; assay: Long term depletion of Dopamine(DA) in Whole mouse Brain region of cortex at a high dose (300 nmol); format: functional
# [13] = organism: Mus musculus; assay: Long term depletion of Dopamine(DA) in Whole mouse Brain region of hippocampus at a high dose (300 nmol); format: functional
# [14] = organism: Mus musculus; assay: Long term depletion of Serotonin(5-HT) in Whole mouse Brain region of medulla-pons at a high dose (300 nmol) with respect to control value(100+/-6); format: functional
# [15] = organism: Mus musculus; assay: Long term depletion of Serotonin(5-HT) in Whole mouse Brain region of striatum at a high dose (300 nmol); format: functional
# [16] = organism: Mus musculus; assay: Long term depletion of Serotonin(5-HT) in Whole mouse Brain region of thalamus at a high dose (300 nmol); format: functional
# [17] = organism: Mus musculus; assay: Long term depletion of Serotonin(5-HT) in Whole mouse Brain, region of midbrain at a high dose (300 nmol); format: functional
# [18] = organism: Mus musculus; assay: Long term depletion of Dopamine(DA) in Whole mouse Brain region of medulla-pons at a high dose (300 nmol) with respect to control value(100+/-8); format: functional
# [19] = organism: Mus musculus; assay: Long term depletion of Dopamine(DA) in Whole mouse Brain region of striatum at a high dose (300 nmol); format: functional
# [20] = organism: Mus musculus; assay: Long term depletion of Dopamine(DA) in Whole mouse Brain region of thalamus at a high dose (300 nmol); format: functional
# [21] = organism: Mus musculus; assay: Long term depletion of Dopamine(DA) in Whole mouse Brain, region of midbrain at a high dose (300 nmol); format: functional
# [22] = organism: Mus musculus; assay: Noradrenergic effect was determined by depletion effect of Dopamine(DA) in mouse brain regions expressed as d50; format: functional
# [23] = organism: Mus musculus; assay: Noradrenergic effect was determined by depletion effect of Nerepinephrine (NE) in mouse brain regions expressed as d50; format: functional
# [24] = organism: Mus musculus; assay: Noradrenergic effect was determined by depletion effect of Serotonin(5-HT) in mouse brain regions expressed as d50; format: functional
# [25] = organism: Mus musculus; assay: Noradrenergic effect was determined by depletion effect of Dopamine(DA) in mouse brain regions expressed as log d50; format: functional, organism-based
# [26] = organism: Mus musculus; assay: Noradrenergic effect was determined by depletion effect of Nerepinephrine (NE) in mouse brain regions expressed as log d50; format: functional, organism-based
# [27] = organism: Mus musculus; assay: Noradrenergic effect was determined by depletion effect of Serotonin(5-HT) in mouse brain regions expressed as log d50; format: functional, organism-based
# [28] = organism: Mus musculus; assay: Long term depletion of Serotonin(5-HT) in Whole mouse Brain region of cerebellum at a high dose (300 nmol); format: functional
# [29] = organism: Mus musculus; assay: Long term depletion of Serotonin(5-HT) in Whole mouse Brain region of cortex at a high dose (300 nmol); format: functional
# [30] = organism: Mus musculus; assay: Long term depletion of Serotonin(5-HT) in Whole mouse Brain region of hippocampus at a high dose (300 nmol); format: functional
# [31] = organism: Mus musculus; assay: Long term depletion of Serotonin(5-HT) in Whole mouse Brain region of hypothalamus at a high dose (300 nmol); format: functional
# [32] = organism: Mus musculus; assay: Long term depletion of Norepinephrine (NE) in Whole mouse Brain region of cerebellum at a high dose (300 nmol); format: functional
# [33] = organism: Mus musculus; assay: Long term depletion of Norepinephrine (NE) in Whole mouse Brain, region of midbrain at a high dose (300 nmol) with respect to control value(100+/-8); format: functional
# [34] = organism: Mus musculus; assay: Long term depletion of Norepinephrine (NE) in Whole mouse Brain region of hypothalamus at a high dose (300 nmol); format: functional
# [35] = organism: Mus musculus; assay: Long term depletion of Norepinephrine (NE) in Whole mouse Brain region of medulla-pons at a high dose (300 nmol) with respect to control value(100+/-9); format: functional
# [36] = organism: Mus musculus; assay: Long term depletion of Norepinephrine (NE) in Whole mouse Brain region of striatum at a high dose (300 nmol); format: functional
# [37] = organism: Mus musculus; assay: Long term depletion of Norepinephrine (NE) in Whole mouse Brain region of thalamus at a high dose (300 nmol); format: functional
# [38] = organism: Mus musculus; assay: Long term depletion of Norepinephrine (NE) in Whole mouse Brain region of cortex at a high dose (300 nmol) with respect to control value(100+/-6); format: functional
# [39] = organism: Mus musculus; assay: Long term depletion of Norepinephrine (NE) in Whole mouse Brain region of hippocampus at a high dose (300 nmol) with respect to control value(100+/-10); format: functional
# [40] = organism: Mus musculus; assay: Long term depletion of Dopamine(DA) in Whole mouse Brain region of hypothalamus at a high dose (300 nmol) with respect to control value(100+/-14); format: functional
# Sodium-dependent dopamine transporter, sequence (P23977 whole entry): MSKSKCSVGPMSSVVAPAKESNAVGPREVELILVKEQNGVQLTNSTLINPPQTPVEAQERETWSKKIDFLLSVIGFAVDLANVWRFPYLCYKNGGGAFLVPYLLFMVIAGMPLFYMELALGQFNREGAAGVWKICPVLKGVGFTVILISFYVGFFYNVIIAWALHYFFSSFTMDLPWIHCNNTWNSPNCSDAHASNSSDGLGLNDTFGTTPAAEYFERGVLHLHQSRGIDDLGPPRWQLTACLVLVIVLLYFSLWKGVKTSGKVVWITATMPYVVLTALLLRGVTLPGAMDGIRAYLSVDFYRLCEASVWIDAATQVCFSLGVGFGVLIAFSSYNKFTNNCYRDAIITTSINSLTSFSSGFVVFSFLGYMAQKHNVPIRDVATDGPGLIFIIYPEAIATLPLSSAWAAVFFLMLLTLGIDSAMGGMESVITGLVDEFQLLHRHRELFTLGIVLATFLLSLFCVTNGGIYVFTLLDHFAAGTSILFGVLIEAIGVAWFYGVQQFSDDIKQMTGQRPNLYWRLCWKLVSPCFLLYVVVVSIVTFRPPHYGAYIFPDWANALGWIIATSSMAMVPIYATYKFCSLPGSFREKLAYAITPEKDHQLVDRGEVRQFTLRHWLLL
smiles,measurement,setting,value
NCCc1cc(O)c(N)cc1O,Ki,[1],0.009 µM
same,percent of control,[2],85%
same,Control,[3],100%
same,Control,[4],39%
same,Control,[5],37%
same,Control,[6],72%
same,Control,[7],73%
same,Ki,[8],0.005 µM
same,EC50,[9],21 µM
same,EC50,[10],34 µM
NCCc1cc(O)c(O)cc1O [OXIDOPAMINE],Ki,[1],0.012 µM
same,percent of control,[2],71%
same,Control,[3],86%
same,Control,[11],72%
same,Control,[12],53%
same,Control,[13],25%
same,Control,[14],109%
same,Control,[15],103%
same,Control,[16],90%
same,Control,[17],89%
same,Control,[18],158%
same,Control,[19],76%
same,Control,[20],151%
same,Control,[21],88%
same,Control,[4],35%
same,d50,[22],831 nmol
same,d50,[23],34.3 nmol
same,d50,[24],1930 nmol
same,Log d50,[25],2.92 nM
same,Log d50,[26],1.53 nM
same,Log d50,[27],3.28 nM
same,Control,[28],79%
same,Control,[29],82%
same,Control,[30],71%
same,Control,[31],89%
same,Control,[5],40%
same,Control,[32],3.8%
same,Control,[33],70%
same,Control,[6],88%
same,Control,[34],6.9%
same,Control,[35],47%
same,Control,[36],23%
same,Control,[37],18%
same,Control,[38],9%
same,Control,[39],5.3%
same,Ki,[8],0.051 µM
same,EC50,[9],60 µM
same,EC50,[10],828 µM
same,Control,[40],116%
CC(N)Cc1cc(O)c(O)cc1N (stereo unspecified),Ki,[1],0.009 µM
same,percent of control,[2],77%
same,Control,[3],96%
same,Control,[4],26%
same,Control,[5],32%
same,Control,[6],59%
same,Control,[7],72%
same,Ki,[8],0.008 µM
same,EC50,[9],7 µM
same,EC50,[10],21 µM
CC(N)Cc1cc(O)c(O)cc1O (stereo unspecified),Ki,[1],0.016 µM
same,Control,[3],87%
same,Control,[5],25%
same,Control,[7],93%
same,Ki,[8],0.026 µM
same,EC50,[9],101 µM
same,EC50,[10],317 µM
